According to ChEMBL document CHEMBL4406913, “INCB050465 (Parsaclisib), a Novel Next-Generation Inhibitor of Phosphoinositide 3-Kinase Delta (PI3Kδ)” (ACS Med Chem Lett, 2019):
Active and inactive are the calls of the source. The rule behind the calls is not given here.

Key:
[1] = Volume of distribution at steady state in rat at 4 mg/kg, iv measured for 24 hrs by LC-MS/MS analysis; assay type: ADME, organism-based; conditions: in vivo, read-out: Vdss
Cytochrome P450 2C8 = target: T1, Cytochrome P450 2C8 (Homo sapiens, UniProt P10632); test: Inhibition of CYP2C8 in human liver microsomes at 0.1 to 25 uM using amodiaquine as substrate by LC/MS analysis; assay type: ADME
T1 sequence (P10632 whole entry): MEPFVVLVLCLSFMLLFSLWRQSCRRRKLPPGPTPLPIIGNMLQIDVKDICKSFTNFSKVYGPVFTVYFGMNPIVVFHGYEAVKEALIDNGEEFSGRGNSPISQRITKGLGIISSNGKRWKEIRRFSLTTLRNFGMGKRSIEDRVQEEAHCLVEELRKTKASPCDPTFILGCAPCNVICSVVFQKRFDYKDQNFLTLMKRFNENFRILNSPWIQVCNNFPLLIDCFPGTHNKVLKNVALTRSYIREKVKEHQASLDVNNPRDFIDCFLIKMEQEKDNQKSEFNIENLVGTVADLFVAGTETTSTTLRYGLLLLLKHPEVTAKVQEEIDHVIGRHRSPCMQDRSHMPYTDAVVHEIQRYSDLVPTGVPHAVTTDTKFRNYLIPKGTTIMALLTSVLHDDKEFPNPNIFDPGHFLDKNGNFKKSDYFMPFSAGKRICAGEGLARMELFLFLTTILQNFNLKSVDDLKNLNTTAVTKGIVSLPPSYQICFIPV

[2] = target: T2, Phosphatidylinositol 4,5-bisphosphate 3-kinase catalytic subunit delta isoform (Homo sapiens) (UniProt O00329)
T2 sequence (whole entry): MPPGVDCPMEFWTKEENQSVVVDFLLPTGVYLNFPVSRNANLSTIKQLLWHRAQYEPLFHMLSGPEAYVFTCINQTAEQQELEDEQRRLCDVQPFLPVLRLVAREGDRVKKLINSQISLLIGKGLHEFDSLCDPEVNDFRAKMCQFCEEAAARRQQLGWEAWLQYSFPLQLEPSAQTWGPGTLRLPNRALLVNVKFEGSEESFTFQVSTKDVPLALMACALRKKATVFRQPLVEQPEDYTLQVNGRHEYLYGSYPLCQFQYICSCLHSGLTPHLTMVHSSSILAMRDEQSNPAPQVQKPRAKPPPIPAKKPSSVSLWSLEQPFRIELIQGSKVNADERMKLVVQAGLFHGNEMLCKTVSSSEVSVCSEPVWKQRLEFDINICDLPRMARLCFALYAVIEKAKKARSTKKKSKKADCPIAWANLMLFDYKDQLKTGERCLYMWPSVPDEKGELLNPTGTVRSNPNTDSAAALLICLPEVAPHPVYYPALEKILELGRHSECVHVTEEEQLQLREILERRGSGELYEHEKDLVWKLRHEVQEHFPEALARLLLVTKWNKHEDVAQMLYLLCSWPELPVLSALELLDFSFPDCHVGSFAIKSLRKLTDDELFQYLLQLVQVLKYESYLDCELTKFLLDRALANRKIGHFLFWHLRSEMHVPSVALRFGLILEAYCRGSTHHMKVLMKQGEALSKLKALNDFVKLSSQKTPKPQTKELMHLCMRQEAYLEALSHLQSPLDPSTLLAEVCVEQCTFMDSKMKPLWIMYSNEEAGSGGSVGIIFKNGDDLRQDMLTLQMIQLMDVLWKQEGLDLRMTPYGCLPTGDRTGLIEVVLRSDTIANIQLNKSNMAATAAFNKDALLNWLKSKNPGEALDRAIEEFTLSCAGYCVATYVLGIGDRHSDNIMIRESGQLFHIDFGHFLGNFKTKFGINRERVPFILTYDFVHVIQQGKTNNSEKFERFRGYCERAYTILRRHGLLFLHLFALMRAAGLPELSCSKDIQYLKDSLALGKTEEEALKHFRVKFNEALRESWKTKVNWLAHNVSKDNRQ
Description: Inhibition of PI3Kdelta (unknown origin) using D-myophosphatidylinositol 4,5-bisphosphate as substrate incubated for 120 mins by [gamma-33P]ATP based SPA assay

Pfeiffer = test: Cytotoxicity against human Pfeiffer cells assessed as reduction in protein binding adjusted cell viability incubated for 4 days by [3H]-thymidine incorporation based liquid scintillation counter method; assay type: functional

Vd [1]: 1.54 L/kg
inhibition (INH) (Cytochrome P450 2C8): Not Active
inhibition [2]: inactive
SMILES: CCOc1c([C@H](C)n2nc(C)c3c(N)ncnc32)cc(Cl)c(F)c1[C@@H]1CNC(=O)C1 [PARSACLISIB]
IC50 (Pfeiffer): 4.2 nM
